Assay results published in ChEMBL document CHEMBL1157538, “Discovery of a potent, selective, and orally bioavailable c-Met inhibitor: 1-(2-hydroxy-2-methylpropyl)-N-(5-(7-methoxyquinolin-4-yloxy)pyridin-2-yl)-5-methyl-3-oxo-2-phenyl-2,3-dihydro-1H-pyrazole-4-carboxamide (AMG 458)” (J Med Chem, 2008).

Key:
[1] = Half life in BALB/c mouse at 1 mg/kg, iv or 10 mg/kg, po; type: ADME, organism-based; conditions: in vivo
[2] = Clearance in BALB/c mouse at 1 mg/kg, iv or 10 mg/kg, po; type: ADME, organism-based; conditions: in vivo
[3] = target: Hepatocyte growth factor receptor (Homo sapiens, UniProt P08581, H1094R); test: Inhibition c-Met H1094R mutant by HTRF assay
[4] = Volume of distribution at steady state in BALB/c mouse at 1 mg/kg, iv or 10 mg/kg, po; type: ADME, organism-based; conditions: in vivo, read-out: Vdss
[5] = Inhibition of PDGF
[6] = target: Tyrosine-protein kinase Fes/Fps (Homo sapiens, UniProt P07332); test: Inhibition of FES
[7] = Apparent permeability across pig LLC-PK1 cells; type: ADME, cell-based, Sus scrofa; conditions: read-out: permeability
[8] = Intrinsic clearance in cynomolgus monkey liver microsome; type: ADME, Macaca fascicularis; conditions: liver microsomes
[9] = tested on: Mus musculus; test: Inhibition of HGF-mediated c-Met phosphorylation in po dosed BALB/c mouse liver after 6 hrs; type: functional
[10] = target: T1, Tyrosine-protein kinase ITK/TSK (Homo sapiens, UniProt Q08881); test: Inhibition of ITK
T1 sequence (Q08881 whole entry): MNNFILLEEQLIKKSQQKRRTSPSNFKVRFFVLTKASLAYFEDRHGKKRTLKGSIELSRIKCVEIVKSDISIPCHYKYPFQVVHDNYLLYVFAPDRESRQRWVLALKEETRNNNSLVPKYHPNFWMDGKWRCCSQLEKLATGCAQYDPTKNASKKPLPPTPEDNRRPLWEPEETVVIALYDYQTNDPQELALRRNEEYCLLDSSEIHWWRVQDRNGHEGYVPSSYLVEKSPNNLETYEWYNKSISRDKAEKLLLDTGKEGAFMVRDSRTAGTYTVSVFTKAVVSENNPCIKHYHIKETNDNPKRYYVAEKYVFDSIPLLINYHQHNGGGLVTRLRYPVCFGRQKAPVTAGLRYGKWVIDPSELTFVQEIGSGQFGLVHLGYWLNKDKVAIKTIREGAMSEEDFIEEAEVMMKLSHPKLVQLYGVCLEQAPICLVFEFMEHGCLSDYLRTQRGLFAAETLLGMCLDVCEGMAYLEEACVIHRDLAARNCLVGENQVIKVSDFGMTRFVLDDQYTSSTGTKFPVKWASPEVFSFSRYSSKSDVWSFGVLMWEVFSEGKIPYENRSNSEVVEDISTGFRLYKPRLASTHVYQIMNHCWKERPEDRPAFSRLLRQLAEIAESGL

[11] = Volume of distribution at steady state in Sprague-Dawley rat at 1 mg/kg, iv or 10 mg/kg, po; type: ADME, organism-based; conditions: in vivo
[12] = target: Hepatocyte growth factor receptor (Homo sapiens, UniProt P08581, D1228H); test: Inhibition c-Met D1228H mutant by HTRF assay
[13] = Volume of distribution at steady state in cynomolgus monkey at 1 mg/kg, iv or 10 mg/kg, po; type: ADME, organism-based, Macaca fascicularis; conditions: in vivo, read-out: Vdss
[14] = target: Tyrosine-protein kinase Fgr (Homo sapiens, UniProt P09769); test: Inhibition of FGR
[15] = Oral bioavailability in cynomolgus monkey at 10 mg/kg; type: ADME, organism-based, Macaca fascicularis; conditions: in vivo
[16] = Clearance in Beagle dog at 1 mg/kg, iv or 10 mg/kg, po; type: ADME, organism-based, Canis lupus familiaris; conditions: in vivo
[17] = target: Tyrosine-protein kinase Blk (Homo sapiens, UniProt P51451); test: Inhibition of BLK
[18] = Inhibition c-Met […] mutant
[19] = tested on: NIH3T3; test: Antitumor activity in TPR-Met expressing […] NIH3T3 cells xenografted in po dosed mouse assessed as tumor growth inhibition after 24 hrs; type: functional
[20] = Terminal half life in Sprague-Dawley rat; type: ADME, organism-based; conditions: in vivo, read-out: beta t1/2
[21] = Half life in Beagle dog at 1 mg/kg, iv or 10 mg/kg, po; type: ADME, organism-based, Canis lupus familiaris; conditions: in vivo
[22] = Antitumor activity in human U87MG cells xenografted orally dosed CD1 NU/NU mouse assessed as tumor growth inhibition after 14 days; type: functional, U-87MG ATCC; conditions: U-87 MG, po, 336 h
[23] = Permeability from apical to basolateral side of human Caco-2 cell monolayer; type: ADME, cell-based; conditions: read-out: permeability
[24] = target: Hepatocyte growth factor receptor (Homo sapiens, UniProt P08581, M1250T); test: Inhibition c-Met M1250T mutant by HTRF assay
[25] = Oral bioavailability in Beagle dog at 10 mg/kg; type: ADME, organism-based, Canis lupus familiaris; conditions: in vivo

Tyrosine-protein kinase Fes/Fps, sequence (P07332 whole entry): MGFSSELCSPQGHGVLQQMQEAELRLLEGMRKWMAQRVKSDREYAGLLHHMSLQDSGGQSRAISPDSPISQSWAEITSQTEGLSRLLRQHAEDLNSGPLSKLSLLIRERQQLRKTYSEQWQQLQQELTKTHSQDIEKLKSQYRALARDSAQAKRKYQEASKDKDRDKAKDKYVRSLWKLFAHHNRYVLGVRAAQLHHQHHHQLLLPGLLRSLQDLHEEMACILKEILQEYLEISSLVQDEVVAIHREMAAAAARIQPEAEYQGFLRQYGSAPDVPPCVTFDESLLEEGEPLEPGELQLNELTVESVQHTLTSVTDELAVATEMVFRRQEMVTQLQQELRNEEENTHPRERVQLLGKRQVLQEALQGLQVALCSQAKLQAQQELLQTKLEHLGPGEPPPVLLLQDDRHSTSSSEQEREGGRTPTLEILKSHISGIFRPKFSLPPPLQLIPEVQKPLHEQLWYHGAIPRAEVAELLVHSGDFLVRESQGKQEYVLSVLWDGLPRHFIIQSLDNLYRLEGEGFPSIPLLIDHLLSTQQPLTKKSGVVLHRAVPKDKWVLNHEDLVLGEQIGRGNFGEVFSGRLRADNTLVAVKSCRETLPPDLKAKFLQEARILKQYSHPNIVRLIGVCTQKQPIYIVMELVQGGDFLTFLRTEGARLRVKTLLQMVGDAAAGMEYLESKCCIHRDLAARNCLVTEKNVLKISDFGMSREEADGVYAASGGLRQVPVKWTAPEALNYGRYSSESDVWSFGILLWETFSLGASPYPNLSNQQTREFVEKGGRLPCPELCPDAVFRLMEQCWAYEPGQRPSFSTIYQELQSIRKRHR
Hepatocyte growth factor receptor (Homo sapiens, UniProt P08581, D1228H), sequence (P08581 25-1390 D1228H limits assumed): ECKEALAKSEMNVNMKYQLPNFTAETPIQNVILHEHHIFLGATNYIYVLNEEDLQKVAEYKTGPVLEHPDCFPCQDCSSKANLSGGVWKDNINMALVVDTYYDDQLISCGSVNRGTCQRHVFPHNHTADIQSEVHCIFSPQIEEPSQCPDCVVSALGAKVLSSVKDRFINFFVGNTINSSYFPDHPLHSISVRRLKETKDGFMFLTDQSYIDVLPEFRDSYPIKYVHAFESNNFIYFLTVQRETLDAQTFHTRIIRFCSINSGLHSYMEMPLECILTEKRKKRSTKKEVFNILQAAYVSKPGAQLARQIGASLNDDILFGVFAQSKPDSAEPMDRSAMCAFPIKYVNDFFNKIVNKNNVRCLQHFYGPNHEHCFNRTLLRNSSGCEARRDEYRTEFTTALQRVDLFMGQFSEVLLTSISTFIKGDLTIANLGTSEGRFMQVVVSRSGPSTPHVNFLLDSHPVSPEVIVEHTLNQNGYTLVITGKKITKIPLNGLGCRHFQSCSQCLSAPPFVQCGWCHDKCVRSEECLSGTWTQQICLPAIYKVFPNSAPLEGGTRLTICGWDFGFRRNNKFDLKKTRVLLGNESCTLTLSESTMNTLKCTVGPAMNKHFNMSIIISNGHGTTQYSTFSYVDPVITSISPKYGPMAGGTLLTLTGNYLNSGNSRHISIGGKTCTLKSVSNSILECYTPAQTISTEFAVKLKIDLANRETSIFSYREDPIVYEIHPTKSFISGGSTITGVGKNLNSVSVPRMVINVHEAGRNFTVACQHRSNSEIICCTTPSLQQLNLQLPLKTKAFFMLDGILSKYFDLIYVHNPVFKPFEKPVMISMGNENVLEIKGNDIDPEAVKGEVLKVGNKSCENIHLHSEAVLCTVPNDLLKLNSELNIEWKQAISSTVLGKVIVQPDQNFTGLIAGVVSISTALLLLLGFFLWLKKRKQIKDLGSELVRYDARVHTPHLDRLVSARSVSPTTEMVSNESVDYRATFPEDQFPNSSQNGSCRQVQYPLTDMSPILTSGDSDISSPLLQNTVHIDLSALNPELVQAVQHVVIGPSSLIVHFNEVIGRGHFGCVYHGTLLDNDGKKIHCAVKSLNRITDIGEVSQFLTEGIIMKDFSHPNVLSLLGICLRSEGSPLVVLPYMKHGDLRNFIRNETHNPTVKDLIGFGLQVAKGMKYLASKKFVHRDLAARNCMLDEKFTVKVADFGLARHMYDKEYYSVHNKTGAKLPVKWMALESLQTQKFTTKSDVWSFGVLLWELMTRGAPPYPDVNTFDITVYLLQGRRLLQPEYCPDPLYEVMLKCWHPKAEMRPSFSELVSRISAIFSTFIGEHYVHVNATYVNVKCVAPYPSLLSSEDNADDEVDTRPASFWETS
Hepatocyte growth factor receptor (Homo sapiens, UniProt P08581, M1250T), sequence (P08581 25-1390 M1250T limits assumed): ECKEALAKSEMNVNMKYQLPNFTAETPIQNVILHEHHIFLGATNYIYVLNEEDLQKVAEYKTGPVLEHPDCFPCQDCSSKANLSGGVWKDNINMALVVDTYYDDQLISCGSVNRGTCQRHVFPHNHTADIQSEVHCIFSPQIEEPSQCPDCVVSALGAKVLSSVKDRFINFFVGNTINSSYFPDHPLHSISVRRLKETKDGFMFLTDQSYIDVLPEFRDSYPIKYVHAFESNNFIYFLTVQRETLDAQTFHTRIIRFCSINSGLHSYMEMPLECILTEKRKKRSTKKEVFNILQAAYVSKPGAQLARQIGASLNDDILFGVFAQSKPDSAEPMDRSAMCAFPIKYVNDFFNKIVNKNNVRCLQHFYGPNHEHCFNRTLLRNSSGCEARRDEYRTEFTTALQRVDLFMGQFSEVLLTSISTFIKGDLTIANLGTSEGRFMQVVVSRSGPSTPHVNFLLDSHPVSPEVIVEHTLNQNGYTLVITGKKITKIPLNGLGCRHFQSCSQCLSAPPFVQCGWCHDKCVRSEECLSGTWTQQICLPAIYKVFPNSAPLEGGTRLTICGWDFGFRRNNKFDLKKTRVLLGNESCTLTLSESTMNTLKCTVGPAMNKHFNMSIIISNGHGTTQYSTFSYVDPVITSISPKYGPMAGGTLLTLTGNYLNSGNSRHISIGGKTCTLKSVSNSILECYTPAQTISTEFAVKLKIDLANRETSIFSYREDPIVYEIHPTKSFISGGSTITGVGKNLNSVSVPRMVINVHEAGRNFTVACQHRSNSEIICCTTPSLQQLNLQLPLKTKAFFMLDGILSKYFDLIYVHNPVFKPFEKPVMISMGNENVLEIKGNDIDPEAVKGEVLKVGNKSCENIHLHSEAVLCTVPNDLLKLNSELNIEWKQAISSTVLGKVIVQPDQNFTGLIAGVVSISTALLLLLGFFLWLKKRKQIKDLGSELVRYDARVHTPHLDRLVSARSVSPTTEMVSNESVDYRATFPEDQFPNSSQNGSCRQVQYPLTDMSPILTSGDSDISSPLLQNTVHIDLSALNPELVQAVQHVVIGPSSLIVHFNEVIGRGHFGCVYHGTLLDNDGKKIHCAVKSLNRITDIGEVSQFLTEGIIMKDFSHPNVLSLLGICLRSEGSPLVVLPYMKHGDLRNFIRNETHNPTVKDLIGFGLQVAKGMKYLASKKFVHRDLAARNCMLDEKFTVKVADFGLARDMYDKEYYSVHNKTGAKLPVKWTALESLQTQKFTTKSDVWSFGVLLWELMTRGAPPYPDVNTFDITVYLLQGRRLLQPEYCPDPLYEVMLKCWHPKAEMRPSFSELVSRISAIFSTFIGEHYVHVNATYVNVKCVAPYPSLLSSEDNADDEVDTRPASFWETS
Tyrosine-protein kinase Blk, sequence (P51451 whole entry): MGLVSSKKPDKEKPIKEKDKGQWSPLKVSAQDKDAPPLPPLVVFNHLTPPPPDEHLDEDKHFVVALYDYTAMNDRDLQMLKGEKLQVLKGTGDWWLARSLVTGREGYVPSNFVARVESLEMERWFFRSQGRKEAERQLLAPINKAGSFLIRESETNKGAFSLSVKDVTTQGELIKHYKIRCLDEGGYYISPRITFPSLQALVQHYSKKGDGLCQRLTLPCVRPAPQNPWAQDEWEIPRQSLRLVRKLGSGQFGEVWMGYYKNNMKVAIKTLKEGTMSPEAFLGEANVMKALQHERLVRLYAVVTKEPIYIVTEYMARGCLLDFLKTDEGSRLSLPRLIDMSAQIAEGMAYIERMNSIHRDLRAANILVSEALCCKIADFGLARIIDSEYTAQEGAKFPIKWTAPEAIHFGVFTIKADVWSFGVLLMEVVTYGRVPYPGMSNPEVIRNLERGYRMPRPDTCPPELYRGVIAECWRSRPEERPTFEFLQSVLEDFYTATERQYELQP
Tyrosine-protein kinase Fgr, sequence (P09769 whole entry): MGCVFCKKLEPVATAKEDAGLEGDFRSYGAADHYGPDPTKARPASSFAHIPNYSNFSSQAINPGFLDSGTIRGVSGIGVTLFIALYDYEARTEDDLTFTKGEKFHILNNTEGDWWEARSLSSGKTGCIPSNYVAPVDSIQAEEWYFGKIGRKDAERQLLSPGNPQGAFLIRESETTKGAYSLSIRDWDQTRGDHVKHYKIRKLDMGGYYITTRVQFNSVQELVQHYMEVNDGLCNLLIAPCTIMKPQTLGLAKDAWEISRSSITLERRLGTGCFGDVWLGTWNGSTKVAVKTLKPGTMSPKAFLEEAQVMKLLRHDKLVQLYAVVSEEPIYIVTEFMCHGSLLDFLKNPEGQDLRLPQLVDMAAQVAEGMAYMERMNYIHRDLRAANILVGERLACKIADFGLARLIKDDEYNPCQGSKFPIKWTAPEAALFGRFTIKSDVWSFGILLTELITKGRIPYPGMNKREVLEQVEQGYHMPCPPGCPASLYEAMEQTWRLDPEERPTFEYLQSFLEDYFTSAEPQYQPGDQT

COc1ccc2c(Oc3ccc(NC(=O)c4c(C)n(CC(C)(C)O)n(-c5ccccc5)c4=O)nc3)ccnc2c1
half-life [1]: 1.3 h | clearance [2]: 2.67 mL/min/kg | Ki [3]: 0.5 nM | Vd [4]: 0.31 L/kg | IC50 [5]: 120 nM | IC50 [6]: 706 nM | Papp [7]: 27 ×10⁻⁶ cm/s | microsomal CLint [8]: 8 µL/min/mg | ED90 [9]: 30 mg/kg | IC50 [10]: 62 nM | Vd [11]: 0.62 L/kg | Ki [12]: 2.2 nM | Vd [13]: 0.56 L/kg | IC50 [14]: 328 nM | bioavailability [15]: 78% | clearance [16]: 5.67 mL/min/kg | IC50 [17]: 519 nM | Ki [18]: 1.1 nM | ED50 [19]: 12 mg/kg | ED90 [19]: 34 mg/kg | half-life [20]: < 2 h | half-life [21]: 2.8 h | ED50 [22]: 16 mg/kg | ED90 [22]: 59 mg/kg | Papp A→B [23]: 32 ×10⁻⁶ cm/s | Ki [24]: 4.1 nM | bioavailability [25]: 100%
